# From paper PMC3920478, “Small molecule-mediated refolding and activation of myosin motor function” (eLife, 2014)
# Values joined by “and” are separate entries in the source; they are usually repeats but may differ in a detail not shown here. Equal values may be shown once.
# Assays:
# [1] = molecular target: T1, Dd myosin-2 motor domain (Dictyostelium discoideum, UniProt P08799); assay: Microscale thermophoresis direct binding; details: 100 nM, read-out: Binding affinity (MST), KD
# T1 sequence (P08799 1-761 limits assumed): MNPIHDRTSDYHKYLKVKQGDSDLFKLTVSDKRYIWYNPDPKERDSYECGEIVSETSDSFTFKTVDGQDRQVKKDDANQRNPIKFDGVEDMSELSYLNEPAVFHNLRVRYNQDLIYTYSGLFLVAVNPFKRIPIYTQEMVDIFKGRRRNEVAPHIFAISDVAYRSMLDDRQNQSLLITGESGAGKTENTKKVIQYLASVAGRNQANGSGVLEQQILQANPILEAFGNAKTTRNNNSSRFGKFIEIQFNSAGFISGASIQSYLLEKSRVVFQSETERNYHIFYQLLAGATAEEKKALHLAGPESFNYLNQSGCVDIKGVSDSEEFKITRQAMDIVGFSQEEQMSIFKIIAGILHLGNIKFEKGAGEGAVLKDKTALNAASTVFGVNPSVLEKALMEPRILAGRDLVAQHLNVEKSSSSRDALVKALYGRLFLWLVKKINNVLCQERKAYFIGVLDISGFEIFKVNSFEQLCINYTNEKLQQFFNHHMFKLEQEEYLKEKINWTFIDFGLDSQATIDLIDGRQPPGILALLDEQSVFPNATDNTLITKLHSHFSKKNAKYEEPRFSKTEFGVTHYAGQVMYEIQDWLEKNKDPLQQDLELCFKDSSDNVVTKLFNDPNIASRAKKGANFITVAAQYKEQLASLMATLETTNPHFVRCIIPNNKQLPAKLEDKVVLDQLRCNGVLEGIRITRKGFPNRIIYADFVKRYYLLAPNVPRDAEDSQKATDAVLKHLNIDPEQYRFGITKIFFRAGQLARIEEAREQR
# Excerpt: (§1) Proteolytic fragments were further purified by actin-coprecipitation.
# [2] = molecular target: T1, Dd myosin-2 motor domain; assay: Steady-state basal and actin-activated Mg2+-ATPase (NADH-coupled assay); type: biochemical
# Method: as §1
# Basal and actin-activated Mg^2+-ATPase activities were measured using the NADH-coupled assay described previously ([Furch et al., 1998]) adapted for higher throughput screens for a temperature controlled plate reader (Multiscan FC, Thermo Scientific, Waltham, MA) at 25°C. EMD 57033 was added to the reaction mixture in the absence of nucleotide and incubated before the reaction was started by the addition of ATP. Control measurements were carried out in the absence of drug, as well as in the presence of according concentrations of the non-binding (−)-enantiomer EMD 57439 to account for possible absorption effects. […] Data points are mean values from 3 to 5 independent experiments. Error bars indicate standard deviations.
# [3] = molecular target: T2, β-cardiac myosin (Sus scrofa, UniProt P79293); assay: as above; type: biochemical, Porcine
# Target sequence in this assay (P79293 1-810 limits assumed): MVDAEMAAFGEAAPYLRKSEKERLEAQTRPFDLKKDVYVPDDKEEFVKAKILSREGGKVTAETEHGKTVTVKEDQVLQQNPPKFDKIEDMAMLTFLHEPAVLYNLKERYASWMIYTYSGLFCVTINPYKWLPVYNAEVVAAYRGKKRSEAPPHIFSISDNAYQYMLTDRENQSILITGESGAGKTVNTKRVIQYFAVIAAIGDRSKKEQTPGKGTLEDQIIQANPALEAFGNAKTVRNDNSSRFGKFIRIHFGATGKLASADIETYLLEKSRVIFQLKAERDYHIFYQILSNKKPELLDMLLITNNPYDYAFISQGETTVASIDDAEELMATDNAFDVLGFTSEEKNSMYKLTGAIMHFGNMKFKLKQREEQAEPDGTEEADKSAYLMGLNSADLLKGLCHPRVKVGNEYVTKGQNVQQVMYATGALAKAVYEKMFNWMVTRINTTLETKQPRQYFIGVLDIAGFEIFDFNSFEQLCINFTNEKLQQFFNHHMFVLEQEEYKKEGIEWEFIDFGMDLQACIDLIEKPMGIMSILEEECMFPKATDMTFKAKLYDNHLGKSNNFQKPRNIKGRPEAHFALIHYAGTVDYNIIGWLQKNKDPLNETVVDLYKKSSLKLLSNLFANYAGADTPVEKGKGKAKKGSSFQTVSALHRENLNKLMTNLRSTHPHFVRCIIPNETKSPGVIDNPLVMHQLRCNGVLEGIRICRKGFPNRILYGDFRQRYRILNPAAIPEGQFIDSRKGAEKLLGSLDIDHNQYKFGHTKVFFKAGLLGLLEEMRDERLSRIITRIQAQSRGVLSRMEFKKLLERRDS
# [4] = tested on: dogs with heart failure; set-up: method as in Senzaki et al., 2000; details: ref Senzaki et al., 2000; cited from earlier work
# [5] = molecular target: T2, β-cardiac myosin; assay: Transient kinetics (stopped-flow) of the ATPase cycle; type: biochemical, Porcine; set-up: β-Cardiac myosin-2 (S1, full-length); from tissue; host or cells: porcine cardiac muscle
# Excerpt: To gain a better understanding of its mechanism of action, we examined the effect of EMD 57033-binding on the kinetic activity of the myosin motor. […] Fast mixing of excess ATP with β-cardiac myosin results in an increase of the protein’s intrinsic tryptophan fluorescence. The kinetic model predicts the double exponential ‘behavior’ of the observed transients to be associated with two discrete processes (Figure 3C). The fast process corresponds to the binding of ATP to the active site. The rate of the slow process saturates at ATP concentrations above 100 µM and can be attributed to the ATP hydrolysis step ([Deacon et al., 2012]). […] Phosphate release is the rate-limiting step of the β-cardiac myosin actin-activated ATPase cycle. It can be monitored by the fluorescence increase that is associated with the much faster binding of phosphate to the A197C mutant of Escherichia coli phosphate binding protein, labeled at Cys197 with the thiol reactive coumarin dye MDCC ([Brune et al., 1994]) (Figure 3F). […] The resulting values for k+4 indicate a 1.7-fold increase in the presence of the small compound.
# Stopped-flow experiments were performed using PiStar (Applied Photophysics, Leatherhead, UK) and Hi-Tech SF61 (TgK Scientific Limited, Bradford on Avon, UK) spectrophotometers at 20°C as described previously ([Taft et al., 2008]). Mant-nucleotides (Jena Bioscience, Germany) were excited at 365 nm and detected after passing through a KV 389 nm cut-off filter. Tryptophane fluorescence was excited at 297 nm and detected using a WG 320 nm cut-off filter. Long-time experiments were carried out using a shutter to avoid photo-bleaching. […] Phosphate release was measured using MDCC-PBP (N-[2-(1-maleimidyl)ethyl]-7-(diethylamino)coumarin-3-carboxamide fused to phosphate binding protein; obtained from Life Technologies, Carlsbad, CA) as described previously ([Brune et al., 1994]). Coumarin fluorescence was excited at 430 nm and detected using 455 nm cut-off-filter.
# Target sequence in this assay (P79293 whole entry): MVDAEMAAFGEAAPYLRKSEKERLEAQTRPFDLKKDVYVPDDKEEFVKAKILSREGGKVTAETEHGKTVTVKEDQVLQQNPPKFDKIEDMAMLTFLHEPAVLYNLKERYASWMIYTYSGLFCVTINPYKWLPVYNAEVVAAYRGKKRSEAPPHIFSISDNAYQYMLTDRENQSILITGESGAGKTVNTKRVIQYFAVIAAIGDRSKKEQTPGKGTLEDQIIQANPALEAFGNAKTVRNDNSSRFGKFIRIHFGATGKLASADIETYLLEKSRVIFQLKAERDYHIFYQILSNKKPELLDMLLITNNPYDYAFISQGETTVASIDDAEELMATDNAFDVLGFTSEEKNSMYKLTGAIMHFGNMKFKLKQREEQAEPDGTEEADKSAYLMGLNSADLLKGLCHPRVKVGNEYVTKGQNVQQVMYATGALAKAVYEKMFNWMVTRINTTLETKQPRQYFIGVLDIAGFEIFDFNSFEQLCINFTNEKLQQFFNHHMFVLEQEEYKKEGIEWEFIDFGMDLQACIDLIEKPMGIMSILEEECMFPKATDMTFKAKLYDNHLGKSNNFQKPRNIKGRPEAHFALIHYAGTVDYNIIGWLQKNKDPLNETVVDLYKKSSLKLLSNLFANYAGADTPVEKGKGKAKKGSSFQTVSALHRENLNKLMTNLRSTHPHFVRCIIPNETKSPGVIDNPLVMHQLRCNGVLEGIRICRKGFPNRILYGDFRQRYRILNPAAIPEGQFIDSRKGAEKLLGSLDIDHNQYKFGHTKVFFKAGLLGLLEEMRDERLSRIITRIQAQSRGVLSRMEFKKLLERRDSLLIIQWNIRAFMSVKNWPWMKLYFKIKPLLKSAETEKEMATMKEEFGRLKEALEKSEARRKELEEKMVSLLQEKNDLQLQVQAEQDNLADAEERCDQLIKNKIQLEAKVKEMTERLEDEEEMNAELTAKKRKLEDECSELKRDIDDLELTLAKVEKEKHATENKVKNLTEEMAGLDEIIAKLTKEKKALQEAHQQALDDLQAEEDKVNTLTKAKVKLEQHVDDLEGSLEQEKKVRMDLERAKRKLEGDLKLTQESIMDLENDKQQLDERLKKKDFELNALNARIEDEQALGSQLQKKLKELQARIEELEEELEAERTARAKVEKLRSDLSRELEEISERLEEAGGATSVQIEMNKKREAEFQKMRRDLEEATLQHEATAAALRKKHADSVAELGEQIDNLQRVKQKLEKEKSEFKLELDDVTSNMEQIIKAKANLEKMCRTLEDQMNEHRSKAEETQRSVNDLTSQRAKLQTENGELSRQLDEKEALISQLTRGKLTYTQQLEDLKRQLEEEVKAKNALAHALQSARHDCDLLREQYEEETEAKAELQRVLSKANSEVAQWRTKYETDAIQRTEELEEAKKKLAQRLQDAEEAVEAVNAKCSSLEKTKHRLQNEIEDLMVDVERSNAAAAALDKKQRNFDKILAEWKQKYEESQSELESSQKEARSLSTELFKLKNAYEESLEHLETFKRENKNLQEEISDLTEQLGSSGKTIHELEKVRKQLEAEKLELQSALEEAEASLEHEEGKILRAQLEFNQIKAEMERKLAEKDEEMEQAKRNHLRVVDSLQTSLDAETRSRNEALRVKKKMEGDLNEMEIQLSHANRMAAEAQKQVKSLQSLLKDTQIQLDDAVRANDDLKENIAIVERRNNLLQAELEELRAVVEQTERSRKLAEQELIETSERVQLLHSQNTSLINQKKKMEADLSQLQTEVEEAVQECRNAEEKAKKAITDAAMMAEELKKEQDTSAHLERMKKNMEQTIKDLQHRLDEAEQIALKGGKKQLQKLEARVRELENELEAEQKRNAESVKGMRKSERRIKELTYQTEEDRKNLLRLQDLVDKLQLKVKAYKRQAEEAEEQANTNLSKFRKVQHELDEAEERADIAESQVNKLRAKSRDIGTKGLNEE
smiles,measurement,setting,value
COc1ccc(C(=O)N2CCCc3cc(C4=NNC(=O)SC4C)ccc32)cc1OC (centres unmarked) [EMD 57033],Kd,[1],23 µM
same,AC50,[2],25.8 µM
same,Normalized maximal ATPase activation (basal),[2],1.4
same,Normalized maximal ATPase activation (with 30 µM actin),[2]; 30 µM actin,2.8
same,Basal ATP turnover relative to that expected for 100% active protein,[2]; saturating EMD 57033,1.4 fold
same,"Ea ∼Change (−fold), reduction",[3]; EMD 57033 vs control,1.5 fold
same,Ea (Arrhenius activation energy of ATP turnover),"[3]; in presence of EMD 57033, 25–45°C",7.41 kcal/mol and 7.41 ± 0.72 kcal/mol
same,Haemodynamic effects in failing heart,[4],"potent positive inotropic effects, reduced oxygen cost of contraction, and enhanced diastolic chamber performance"
same,"Effect on ADP-release step (k−D, k−AD)",[5],appears unaffected
same,k+4 (phosphate release),"[5]; 25 µM EMD 57033, F-Actin 25 µM and 25 µM ATP, MDCC-PBP",0.15 ± 0.01 s⁻¹
same,"k+2 ∼Change (−fold), increase",[5]; 25 µM EMD 57033 vs control,3.8 fold
same,"k+4 ∼Change (−fold), increase",[5]; EMD 57033 vs control,1.7 fold
same,"Net change in the rate of ATP turnover, single-turnover mantATP experiment","[5]; actin-activated β-cardiac myosin, 25 µM EMD 57033",approximately twofold net increase
same,k+2 (conformational change after ATP binding),[5]; in presence of 25 µM EMD 57033,174 ± 7 s⁻¹
same,k+3 + k−3 (rate of ATP hydrolysis),[5]; in presence of 25 µM EMD 57033,24.5 ± 1.9 s⁻¹
same,"k−AD (ADP release, with actin)",[5]; in presence of 25 µM EMD 57033,26.9 ± 4 s⁻¹
same,k−D (ADP release),[5]; in presence of 25 µM EMD 57033,0.16 ± 0.04 s⁻¹
